Measured values reported in patent US20160264593A1 (priority 2013, published 2016).
Values joined by “and” are separate entries in the source; they are usually repeats but may differ in a detail not shown here. Equal entries are not always repeated.

Assay: Pharmacokinetic study of 151 (and 100) in SD rats, iv and oral; plasma
Details: for AUC0-t of 151 / AUC0-∞ of 151 / CL of 151 / MRT of 151 / T1/2 of 151 / Vss of 151 / Cmax of 151: plasma
Experimental: A pharmacokinetic study of 151 was conducted in SD rats. The study consisted of two dose levels at 1.0 (iv) and 10 (oral) mg/kg. The blood samples were collected at predetermined times from rats and centrifuged to separate plasma. An LC/MS/MS method was developed to determine the test article in plasma samples. The pharmacokinetic parameters of 151 following iv and oral administration to SD rats were calculated. The absolute bioavailability was evaluated.
The final concentration of the test article was 0.2 mg/mL for iv administration and 1.0 mg/mL for oral administration. The test article solutions were administered using the most recent body weight for each animal.
Blood (approximately 0.3 mL) were collected via orbital plexus into tubes containing sodium heparin at 0.25, 0.5, 1, 2, 3, 5, 7, 9, and 24 hours after oral administration; at 5 min, 15 min, 0.5, 1, 2, 3, 5, 7, 9 and 24 hours after iv administration. Samples were centrifuged for 5 min, at 4° C. with the centrifuge set at 11,000 rpm to separate plasma. The obtained plasma samples were stored frozen at a temperature of about −70° C. until analysis.
Frozen plasma samples were thawed at room temperature and vortexed thoroughly. With a pipette, an aliquot (30 μL) of plasma was transferred into a 1.5-mL conical polypropylene tube. To each sample, 160 μL of acetonitrile were added. The samples were then vigorously vortex-mixed for 1 min. After centrifugation at 11000 rpm for 5 min, a 15 μL aliquot of the supernatant was injected into the LC-MS/MS system for analysis.
Calibration standards were prepared by spiking 30 μL of the 151 standard solutions into 30 μL of heparinized blank rat plasma. The nominal standard concentrations in the standard curve were 1.00, 3.00, 10.0, 30.0, 100, 300, 1000 and 3000 ng/mL.
The analysis was performed using an LC-MS/MS system consisting of the following components—HPLC system: Agilent 1200 series instrument consisting of G1312B vacuum degasser, G1322A binary pump, G1316B column oven and G1367D autosampler (Agilent, USA); MS/MS system: Agilent 6460 triple quadrupole mass spectrometer, equipped with an APCI Interface (Agilent, USA); Data system: MassHunter Software (Agilent, USA).
Chromatographic separation was carried out at room temperature—Analytical column: C8 column (4.6 mm×150 mm I.D., 5 μm, Agilent, USA); Mobile phase: Acetonitrile:10 mM ammonium acetate (75:25, v/v); Flow rate: 0.80 mL/min; Injection volume: 15 μL.
The mass spectrometer was operated in the positive mode. Ionization was performed applying the following parameters: gas temperature, 325° C.; vaporizer temperature, 350° C.; gas flow, 4 L/min; nebulizer, 20 psi; capillary voltage, 4500 V; corona current, 4 μA. 151 was detected using MRM of the transitions m/z 283→m/z 123 and m/z 283→m/z 251, simultaneously. The optimized collision energies of 25 eV and 10 eV were used for m/z 123 and m/z 251, respectively.
Quantification was achieved by the external standard method. Concentrations of the test article were calculated using a weighted least-squares linear regression (W=1/x^2).
The pharmacokinetic parameters were evaluated using WinNonlin version 5.3 (Pharsight Corp., Mountain View, Calif., USA), assuming a non-compartmental model for drug absorption and distribution. • AUC0-t is the area under the plasma concentration-time curve from time zero to last sampling time, calculated by the linear trapezoidal rule. • AUC0-∞ is the area under the plasma concentration-time curve from time zero extrapolating to infinity. • T1/2 is the elimination half-life associated with the terminal (log-linear) elimination phase, which is estimated via linear regression of time vs. log concentrations. • CL is the total body clearance. • Vss is the volume of distribution at steady-state.

[1] = 151 IV 1.0 mg/kg, SD rats, individual, 1 mg/kg
[2] = 151 IV 1.0 mg/kg, SD rats, mean
[3] = 151 PO 10 mg/kg, SD rats, individual, 10 mg/kg

## COC(=O)C1C2CCC(O2)C1C(=O)N1CCN(C)CC1 (centres unmarked) [Compound 151]
151 IV 1.0 mg/kg, SD rats, 0.083 h, individual, 1 mg/kg
  151 plasma concentration: 1677 ng/mL and 1301 ng/mL
151 IV 1.0 mg/kg, SD rats, 0.083 h, mean
  151 plasma concentration: 1489 ng/mL
151 IV 1.0 mg/kg, SD rats, 0.250 h, individual, 1 mg/kg
  151 plasma concentration: 1160 ng/mL and 949 ng/mL
151 IV 1.0 mg/kg, SD rats, 0.250 h, mean
  151 plasma concentration: 1055 ng/mL
151 IV 1.0 mg/kg, SD rats, 0.50 h, individual, 1 mg/kg
  151 plasma concentration: 760 ng/mL and 807 ng/mL
151 IV 1.0 mg/kg, SD rats, 0.50 h, mean
  151 plasma concentration: 683 ng/mL
151 IV 1.0 mg/kg, SD rats, 1.0 h, individual, 1 mg/kg
  151 plasma concentration: 381 ng/mL and 314 ng/mL
151 IV 1.0 mg/kg, SD rats, 1.0 h, mean
  151 plasma concentration: 348 ng/mL
151 IV 1.0 mg/kg, SD rats, 2.0 h, individual, 1 mg/kg
  151 plasma concentration: 95.8 ng/mL and 103 ng/mL
151 IV 1.0 mg/kg, SD rats, 2.0 h, mean
  151 plasma concentration: 99.6 ng/mL
151 IV 1.0 mg/kg, SD rats, 3.0 h, individual, 1 mg/kg
  151 plasma concentration: 39.6 ng/mL and 28.1 ng/mL
151 IV 1.0 mg/kg, SD rats, 3.0 h, mean
  151 plasma concentration: 33.8 ng/mL
151 IV 1.0 mg/kg, SD rats, 5.0 h, individual, 1 mg/kg
  151 plasma concentration: 9.75 ng/mL and 3.63 ng/mL
151 IV 1.0 mg/kg, SD rats, 5.0 h, mean
  151 plasma concentration: 6.69 ng/mL
151 IV 1.0 mg/kg, SD rats, 7.0 h, individual, 1 mg/kg
  151 plasma concentration: 12.2 ng/mL and 1.83 ng/mL
151 IV 1.0 mg/kg, SD rats, 7.0 h, mean
  151 plasma concentration: 7.02 ng/mL
151 IV 1.0 mg/kg, SD rats, 9.0 h, individual
  151 plasma concentration: 2.01 ng/mL
151 IV 1.0 mg/kg, SD rats, 9.0 h, individual, 1 mg/kg
  151 plasma concentration: BLQ
151 IV 1.0 mg/kg, SD rats, 9.0 h, mean
  151 plasma concentration: 1.00 ng/mL
151 IV 1.0 mg/kg, SD rats, 24 h, individual
  151 plasma concentration: BLQ
151 PO 10 mg/kg and iv 1.0 mg/kg
  conversion of 151 to 100 in plasma (statement): converted to LB100
151 PO 10 mg/kg, SD rats, 0.25 h, individual, 10 mg/kg
  151 plasma concentration: 2231 ng/mL and 2029 ng/mL and 2731 ng/mL
151 PO 10 mg/kg, SD rats, 0.25 h, mean
  151 plasma concentration: 2330 ng/mL
151 PO 10 mg/kg, SD rats, 0.50 h, individual, 10 mg/kg
  151 plasma concentration: 2451 ng/mL and 3934 ng/mL and 3343 ng/mL
151 PO 10 mg/kg, SD rats, 0.50 h, mean
  151 plasma concentration: 3243 ng/mL
151 PO 10 mg/kg, SD rats, 1.0 h, individual, 10 mg/kg
  151 plasma concentration: 2204 ng/mL and 2581 ng/mL and 2538 ng/mL
151 PO 10 mg/kg, SD rats, 1.0 h, mean
  151 plasma concentration: 2441 ng/mL
151 PO 10 mg/kg, SD rats, 2.0 h, individual, 10 mg/kg
  151 plasma concentration: 1100 ng/mL and 1237 ng/mL and 1582 ng/mL
151 PO 10 mg/kg, SD rats, 2.0 h, mean
  151 plasma concentration: 1306 ng/mL
151 PO 10 mg/kg, SD rats, 3.0 h, individual, 10 mg/kg
  151 plasma concentration: 521 ng/mL and 660 ng/mL and 794 ng/mL
151 PO 10 mg/kg, SD rats, 3.0 h, mean
  151 plasma concentration: 658 ng/mL
151 PO 10 mg/kg, SD rats, 5.0 h, individual, 10 mg/kg
  151 plasma concentration: 125 ng/mL and 99.4 ng/mL and 192 ng/mL
151 PO 10 mg/kg, SD rats, 5.0 h, mean
  151 plasma concentration: 139 ng/mL
151 PO 10 mg/kg, SD rats, 7.0 h, individual, 10 mg/kg
  151 plasma concentration: 42.6 ng/mL and 20.7 ng/mL and 68.0 ng/mL
151 PO 10 mg/kg, SD rats, 7.0 h, mean
  151 plasma concentration: 43.8 ng/mL
151 PO 10 mg/kg, SD rats, 9.0 h, individual, 10 mg/kg
  151 plasma concentration: 52.1 ng/mL and 38.2 ng/mL and 66.1 ng/mL
151 PO 10 mg/kg, SD rats, 9.0 h, mean
  151 plasma concentration: 52.1 ng/mL
151 PO 10 mg/kg, SD rats, 24 h, individual
  151 plasma concentration: BLQ
151 PO 10 mg/kg, SD rats, mean
  F of 151: 54.6%
  AUC0-t of 151: 6340 ng·h/mL
  AUC0-∞ of 151: 6437 ng·h/mL
  Cmax of 151: 3243 ng/mL
  MRT of 151: 1.81 h
  T1/2 of 151: 1.26 h
151 administered to rats
  conversion to endothal in the plasma (statement): converted to endothal
151 iv 1.0 mg/kg
  mean clearance of 151 from rat plasma: 14.3 mL/min/kg
  volume of distribution at steady state of 151: 0.736 L/kg
151 iv 1.0 mg/kg (n=2)
  elimination half-life of 151: 0.89 h
151 oral 10 mg/kg (n=3)
  mean half-life of 151: 1.26 h
  time of peak plasma concentration of 151: 0.5 h
Oral 10 mg/kg, based on AUC0-∞
  absolute bioavailability (F) of 151: 54.6%
[1]
  AUC0-t of 151: 1293 ng·h/mL and 1045 ng·h/mL
  AUC0-∞ of 151: 1309 ng·h/mL and 1047 ng·h/mL
  CL of 151: 12.7 mL/min/kg and 15.9 mL/min/kg
  MRT of 151: 0.91 h and 0.81 h
  T1/2 of 151: 0.91 h and 0.87 h
  Vss of 151: 0.696 L/kg and 0.775 L/kg
[2]
  AUC0-t of 151: 1169 ng·h/mL
  AUC0-∞ of 151: 1178 ng·h/mL
  CL of 151: 14.3 mL/min/kg
  MRT of 151: 0.86 h
  T1/2 of 151: 0.89 h
  Vss of 151: 0.736 L/kg
[3]
  AUC0-t of 151: 5399 ng·h/mL and 6423 ng·h/mL and 7199 ng·h/mL
  AUC0-∞ of 151: 5499 ng·h/mL and 6484 ng·h/mL and 7328 ng·h/mL
  Cmax of 151: 2451 ng/mL and 3934 ng/mL and 3343 ng/mL
  MRT of 151: 1.86 h and 1.62 h and 1.95 h
  T1/2 of 151: 1.33 h and 1.10 h and 1.35 h
